Assay results from PubChem BioAssay (NCI).
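Each compound was tested at five concentrations against cells in 96-well plates for 48 hours. GI50 marks 50% less growth. TGI: concentration producing complete growth inhibition.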

Tests used:
Test in all cases: DTP human tumour cell line panel, 48 h
M14 melanoma = system: M14 melanoma
MCF7 breast = system: MCF7 breast
CAKI-1 renal = system: CAKI-1 renal
SW-620 colon = system: SW-620 colon
U251 CNS = system: U251 CNS
786-0 renal = system: 786-0 renal
SF-539 CNS = system: SF-539 CNS
MDA-MB-231 breast = system: MDA-MB-231 breast
SF-268 CNS = system: SF-268 CNS
UACC-62 melanoma = system: UACC-62 melanoma
UO-31 renal = system: UO-31 renal
MDA-MB-435 = system: MDA-MB-435
RPMI-8226 leukemia = system: RPMI-8226 leukemia
T-47D breast = system: T-47D breast
OVCAR-8 ovarian = system: OVCAR-8 ovarian
NCI/ADR-RES ovarian = system: NCI/ADR-RES ovarian
SK-MEL-2 melanoma = system: SK-MEL-2 melanoma
NCI-H460 lung = system: NCI-H460 lung
HCC-2998 colon = system: HCC-2998 colon
IGROV1 ovarian = system: IGROV1 ovarian
HCT-15 colon = system: HCT-15 colon
HCT-116 colon = system: HCT-116 colon
LOX IMVI melanoma = system: LOX IMVI melanoma
TK-10 renal = system: TK-10 renal
BT-549 breast = system: BT-549 breast
ACHN renal = system: ACHN renal
OVCAR-5 ovarian = system: OVCAR-5 ovarian
KM12 colon = system: KM12 colon
K-562 leukemia = system: K-562 leukemia
A549 NSCLC = system: A549 NSCLC
SNB-19 CNS = system: SNB-19 CNS
OVCAR-3 ovarian = system: OVCAR-3 ovarian
NCI-H23 lung = system: NCI-H23 lung
SN12C renal = system: SN12C renal
SF-295 CNS = system: SF-295 CNS
SK-MEL-28 melanoma = system: SK-MEL-28 melanoma
HS 578T breast = system: HS 578T breast
OVCAR-4 ovarian = system: OVCAR-4 ovarian
HOP-92 NSCLC = system: HOP-92 NSCLC
SK-MEL-5 melanoma = system: SK-MEL-5 melanoma
COLO 205 colon = system: COLO 205 colon
HOP-62 NSCLC = system: HOP-62 NSCLC
HL-60(TB) leukemia = system: HL-60(TB) leukemia
DU-145 prostate = system: DU-145 prostate
SK-OV-3 ovarian = system: SK-OV-3 ovarian
PC-3 prostate = system: PC-3 prostate
EKVX NSCLC = system: EKVX NSCLC
A498 renal = system: A498 renal
HT29 colon = system: HT29 colon
MOLT-4 leukemia = system: MOLT-4 leukemia
SNB-75 CNS = system: SNB-75 CNS
CCRF-CEM leukemia = system: CCRF-CEM leukemia
NCI-H226 lung = system: NCI-H226 lung
MALME-3M melanoma = system: MALME-3M melanoma

C=C(CN1CCN(c2ccccc2OC)CC1)c1ccc(C(=O)Nc2ccccc2N)cc1
GI50 (M14 melanoma): 12.1 µM
TGI (M14 melanoma): > 50 µM
GI50 (MCF7 breast): 16.7 µM
TGI (MCF7 breast): > 50 µM
GI50 (CAKI-1 renal): 3.86 µM
TGI (CAKI-1 renal): 14.3 µM
GI50 (SW-620 colon): 2.1 µM
TGI (SW-620 colon): > 50 µM
GI50 (U251 CNS): 1.7 µM
TGI (U251 CNS): 11.1 µM
GI50 (786-0 renal): 2.45 µM
TGI (786-0 renal): 29.1 µM
GI50 (SF-539 CNS): 2.18 µM
TGI (SF-539 CNS): 23.7 µM
GI50 (MDA-MB-231 breast): 0.315 µM
TGI (MDA-MB-231 breast): 4.4 µM
GI50 (SF-268 CNS): 12.2 µM
TGI (SF-268 CNS): 36 µM
GI50 (UACC-62 melanoma): 1.18 µM
TGI (UACC-62 melanoma): 6.92 µM
GI50 (UO-31 renal): 7.93 µM
TGI (UO-31 renal): 16.4 µM
GI50 (MDA-MB-435): 1.27 µM
TGI (MDA-MB-435): 3.38 µM
GI50 (RPMI-8226 leukemia): 5.11 µM
TGI (RPMI-8226 leukemia): > 50 µM
GI50 (T-47D breast): 10.8 µM
TGI (T-47D breast): 45.2 µM
GI50 (OVCAR-8 ovarian): 9.28 µM
TGI (OVCAR-8 ovarian): 32.4 µM
GI50 (NCI/ADR-RES ovarian): 0.143 µM
TGI (NCI/ADR-RES ovarian): 1.56 µM
GI50 (SK-MEL-2 melanoma): 12.6 µM
TGI (SK-MEL-2 melanoma): 37.9 µM
GI50 (NCI-H460 lung): 17.5 µM
TGI (NCI-H460 lung): > 50 µM
GI50 (HCC-2998 colon): 0.27 µM
TGI (HCC-2998 colon): 0.452 µM
GI50 (IGROV1 ovarian): 9.54 µM
TGI (IGROV1 ovarian): 30.6 µM
GI50 (HCT-15 colon): 2.03 µM
TGI (HCT-15 colon): 31.3 µM
GI50 (HCT-116 colon): 6.02 µM
TGI (HCT-116 colon): 18.3 µM
GI50 (LOX IMVI melanoma): 0.243 µM
TGI (LOX IMVI melanoma): 1.42 µM
GI50 (TK-10 renal): 1.2 µM
TGI (TK-10 renal): 9.07 µM
GI50 (BT-549 breast): 7.12 µM
TGI (BT-549 breast): 26.9 µM
GI50 (ACHN renal): 0.856 µM
TGI (ACHN renal): 4.95 µM
GI50 (OVCAR-5 ovarian): 7.56 µM
TGI (OVCAR-5 ovarian): 22.8 µM
GI50 (KM12 colon): 3.32 µM
TGI (KM12 colon): 11.6 µM
GI50 (K-562 leukemia): > 50 µM
TGI (K-562 leukemia): > 50 µM
GI50 (A549 NSCLC): 11.2 µM
TGI (A549 NSCLC): 35.5 µM
GI50 (SNB-19 CNS): 12.1 µM
TGI (SNB-19 CNS): > 50 µM
GI50 (OVCAR-3 ovarian): 5.64 µM
TGI (OVCAR-3 ovarian): 19.7 µM
GI50 (NCI-H23 lung): 0.447 µM
TGI (NCI-H23 lung): 3.24 µM
GI50 (SN12C renal): 0.0129 µM
TGI (SN12C renal): 0.0874 µM
GI50 (SF-295 CNS): 4.11 µM
TGI (SF-295 CNS): 15.4 µM
GI50 (SK-MEL-28 melanoma): 2.14 µM
TGI (SK-MEL-28 melanoma): > 50 µM
GI50 (HS 578T breast): 3.58 µM
TGI (HS 578T breast): > 50 µM
GI50 (OVCAR-4 ovarian): 3.2 µM
TGI (OVCAR-4 ovarian): 23.6 µM
GI50 (HOP-92 NSCLC): 5.73 µM
TGI (HOP-92 NSCLC): 44.5 µM
GI50 (SK-MEL-5 melanoma): 2.58 µM
TGI (SK-MEL-5 melanoma): 11.3 µM
GI50 (COLO 205 colon): 8.31 µM
TGI (COLO 205 colon): 37.2 µM
GI50 (HOP-62 NSCLC): 3.27 µM
TGI (HOP-62 NSCLC): > 50 µM
GI50 (HL-60(TB) leukemia): 1.81 µM
TGI (HL-60(TB) leukemia): > 50 µM
GI50 (DU-145 prostate): 3.8 µM
TGI (DU-145 prostate): 39.5 µM
GI50 (SK-OV-3 ovarian): 7.18 µM
TGI (SK-OV-3 ovarian): 18.1 µM
GI50 (PC-3 prostate): 9.64 µM
TGI (PC-3 prostate): > 50 µM
GI50 (EKVX NSCLC): 10.6 µM
TGI (EKVX NSCLC): > 50 µM

CCCCCCCCCCCCn1c(C)nc2ccccc21
GI50 (M14 melanoma): 13.7 µM
TGI (M14 melanoma): 26.6 µM
GI50 (MCF7 breast): 5.15 µM
TGI (MCF7 breast): 23.3 µM
GI50 (CAKI-1 renal): 14 µM
TGI (CAKI-1 renal): 31.2 µM
GI50 (SW-620 colon): 15.4 µM
TGI (SW-620 colon): 30.7 µM
GI50 (U251 CNS): 11 µM
TGI (U251 CNS): 24.9 µM
GI50 (786-0 renal): 11.5 µM
TGI (786-0 renal): 24 µM
GI50 (SF-539 CNS): 13.7 µM
TGI (SF-539 CNS): 27 µM
GI50 (MDA-MB-231 breast): 15.3 µM
TGI (MDA-MB-231 breast): 34.8 µM
GI50 (SF-268 CNS): 19.6 µM
TGI (SF-268 CNS): 41.1 µM
GI50 (UACC-62 melanoma): 13.1 µM
TGI (UACC-62 melanoma): 26.9 µM
GI50 (UO-31 renal): 7.58 µM
TGI (UO-31 renal): 20.6 µM
GI50 (A498 renal): 12.4 µM
TGI (A498 renal): 25.5 µM
GI50 (MDA-MB-435): 12.8 µM
TGI (MDA-MB-435): 28.8 µM
GI50 (HT29 colon): 11.6 µM
TGI (HT29 colon): 23.7 µM
GI50 (RPMI-8226 leukemia): 0.614 µM
TGI (RPMI-8226 leukemia): 10.3 µM
GI50 (T-47D breast): 0.325 µM
TGI (T-47D breast): 19.1 µM
GI50 (NCI/ADR-RES ovarian): 2.55 µM
TGI (NCI/ADR-RES ovarian): 12.9 µM
GI50 (MOLT-4 leukemia): 10.2 µM
TGI (MOLT-4 leukemia): 23.5 µM
GI50 (NCI-H460 lung): 10.5 µM
TGI (NCI-H460 lung): 24.3 µM
GI50 (HCC-2998 colon): 2.6 µM
TGI (HCC-2998 colon): 18 µM
GI50 (IGROV1 ovarian): 14.7 µM
TGI (IGROV1 ovarian): 28.3 µM
GI50 (HCT-15 colon): 12.3 µM
TGI (HCT-15 colon): 27.4 µM
GI50 (HCT-116 colon): 0.712 µM
TGI (HCT-116 colon): 13 µM
GI50 (LOX IMVI melanoma): 3.72 µM
TGI (LOX IMVI melanoma): 20.5 µM
GI50 (SNB-75 CNS): 16.2 µM
TGI (SNB-75 CNS): 30.3 µM
GI50 (TK-10 renal): 11.2 µM
TGI (TK-10 renal): 25.5 µM
GI50 (BT-549 breast): 12 µM
TGI (BT-549 breast): 28.7 µM
GI50 (CCRF-CEM leukemia): 2.79 µM
TGI (CCRF-CEM leukemia): 21.2 µM
GI50 (NCI-H226 lung): 12.7 µM
TGI (NCI-H226 lung): 31.7 µM
GI50 (ACHN renal): 13.2 µM
TGI (ACHN renal): 26.5 µM
GI50 (OVCAR-5 ovarian): 4.78 µM
TGI (OVCAR-5 ovarian): 17.6 µM
GI50 (KM12 colon): 14.3 µM
TGI (KM12 colon): 29 µM
GI50 (K-562 leukemia): 1.11 µM
TGI (K-562 leukemia): 16.4 µM
GI50 (A549 NSCLC): 0.4 µM
TGI (A549 NSCLC): 20.7 µM
GI50 (SNB-19 CNS): 13.5 µM
TGI (SNB-19 CNS): 26.3 µM
GI50 (OVCAR-3 ovarian): 14.7 µM
TGI (OVCAR-3 ovarian): 30.2 µM
GI50 (NCI-H23 lung): 0.49 µM
TGI (NCI-H23 lung): 11.5 µM
GI50 (SN12C renal): 14.4 µM
TGI (SN12C renal): 31.1 µM
GI50 (SF-295 CNS): 8.87 µM
TGI (SF-295 CNS): 26.6 µM
GI50 (SK-MEL-28 melanoma): 19.4 µM
TGI (SK-MEL-28 melanoma): 34.5 µM
GI50 (HS 578T breast): 27.7 µM
TGI (HS 578T breast): 48.3 µM
GI50 (OVCAR-4 ovarian): 12.7 µM
TGI (OVCAR-4 ovarian): 25.6 µM
GI50 (HOP-92 NSCLC): 11 µM
TGI (HOP-92 NSCLC): 23.9 µM
GI50 (SK-MEL-5 melanoma): 0.984 µM
TGI (SK-MEL-5 melanoma): 18.2 µM
GI50 (COLO 205 colon): 13.2 µM
TGI (COLO 205 colon): 27.4 µM
GI50 (HOP-62 NSCLC): 12.4 µM
TGI (HOP-62 NSCLC): 25.5 µM
GI50 (MALME-3M melanoma): 16.2 µM
TGI (MALME-3M melanoma): 33.6 µM
GI50 (HL-60(TB) leukemia): 2.54 µM
TGI (HL-60(TB) leukemia): 18.5 µM
GI50 (DU-145 prostate): 17.2 µM
TGI (DU-145 prostate): 35.4 µM
GI50 (SK-OV-3 ovarian): 13.6 µM
TGI (SK-OV-3 ovarian): 26.5 µM
GI50 (PC-3 prostate): 2.47 µM
TGI (PC-3 prostate): 15.8 µM
GI50 (EKVX NSCLC): 1.72 µM
TGI (EKVX NSCLC): 19.3 µM
